Each compound was assayed against T1, recombinant CETP (rCETP) (Homo sapiens, UniProt P11597) (assay: RTA assay using recombinant CETP (2% RTA)). Settings: RTA assay in 2% human serum; read-out: IC50.
T1 sequence (P11597 18-493): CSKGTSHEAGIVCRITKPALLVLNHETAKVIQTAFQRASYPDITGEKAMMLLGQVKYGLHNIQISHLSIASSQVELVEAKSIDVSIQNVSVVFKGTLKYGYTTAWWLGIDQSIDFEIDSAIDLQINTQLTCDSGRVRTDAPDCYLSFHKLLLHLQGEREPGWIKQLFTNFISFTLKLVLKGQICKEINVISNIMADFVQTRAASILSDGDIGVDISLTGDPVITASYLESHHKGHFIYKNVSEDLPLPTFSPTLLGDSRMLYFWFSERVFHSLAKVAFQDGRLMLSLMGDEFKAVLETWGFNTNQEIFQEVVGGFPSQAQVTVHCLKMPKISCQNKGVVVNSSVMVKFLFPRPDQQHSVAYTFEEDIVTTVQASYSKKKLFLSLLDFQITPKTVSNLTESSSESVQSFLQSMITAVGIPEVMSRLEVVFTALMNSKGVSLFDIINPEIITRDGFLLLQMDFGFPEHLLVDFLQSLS
Type: biochemical
Method in brief: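 Compounds preincubated 1 h at 37 °C with assay cocktail (CETP buffer: 50 mM Tris pH 7.4, 100 mM NaCl, 1 mM EDTA; human HDL acceptor); transfer started with [3H]cholesteryl oleate- or [3H]triolein-labelled LDL, 60 min at 37 °C. LDL PEG-precipitated; supernatant counted by scintillation, blank-corrected; IC50 from 4-parameter sigmoidal fit of % inhibition vs DMSO control.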

Structure (SMILES)	IC50 [nM]
COc1cc2c(cc1-c1cnc(N3CC(F)(F)C3)nc1CN1C(=O)O[C@H](c3cc(C(F)(F)F)cc(C(F)(F)F)c3)[C@@H]1C)[C@H](CC(=O)O)CC2 [Example 159]	55
COc1ccc(-c2ccc(C(=O)O)cc2C)cc1-c1cnc(N2CC(F)(F)C2)nc1CN1C(=O)O[C@H](c2cc(C(F)(F)F)cc(C(F)(F)F)c2)[C@@H]1C [Example 160]	9
COc1cc(F)c(-c2ccc(C(=O)O)cc2C)cc1-c1cnc(N2CC(F)(F)C2)nc1CN1C(=O)O[C@H](c2cc(C(F)(F)F)cc(C(F)(F)F)c2)[C@@H]1C [Example 161]	7
CCc1ccc(-c2ccc(C(=O)O)cc2C)cc1-c1cnc(N2CC(F)(F)C2)nc1CN1C(=O)O[C@H](c2cc(C(F)(F)F)cc(C(F)(F)F)c2)[C@@H]1C [Example 162]	6
COc1ccc(C2C[C@@H]2C(=O)O)cc1-c1cnc(N2CC(F)(F)C2)nc1CN1C(=O)O[C@H](c2cc(C(F)(F)F)cc(C(F)(F)F)c2)[C@@H]1C (stereo partly shown) [Example 163]	14
COc1ccc(-c2ccc(C(=O)O)cc2C)cc1-c1cnc(N2CC(OC)C2)nc1CN1C(=O)O[C@H](c2cc(C(F)(F)F)cc(C(F)(F)F)c2)[C@@H]1C [Example 164]	16
COc1cc(F)c(-c2ccc(C(=O)O)cc2C)cc1-c1cnc(N2CC(OC)C2)nc1CN1C(=O)O[C@H](c2cc(C(F)(F)F)cc(C(F)(F)F)c2)[C@@H]1C [Example 165]	11
CCc1ccc(-c2ccc(C(=O)O)cc2C)cc1-c1cnc(N2CC(OC)C2)nc1CN1C(=O)O[C@H](c2cc(C(F)(F)F)cc(C(F)(F)F)c2)[C@@H]1C [Example 166]	46
COC1CN(c2ncc(-c3cc([C@H]4CC[C@H](C(=O)O)CC4)ccc3Cl)c(CN3C(=O)O[C@H](c4cc(C(F)(F)F)cc(C(F)(F)F)c4)[C@@H]3C)n2)C1 [Example 167]	771
COc1ccc(CCC(=O)O)cc1-c1cnc(N2CCC2)nc1CN1C(=O)O[C@H](c2cc(C(F)(F)F)cc(C(F)(F)F)c2)[C@@H]1C [Example 171]	60
COc1ccc(CCC(=O)O)cc1-c1cnc(N2CC(F)C2)nc1CN1C(=O)O[C@H](c2cc(C(F)(F)F)cc(C(F)(F)F)c2)[C@@H]1C [Example 172]	35
C[C@H]1[C@@H](c2cc(C(F)(F)F)cc(C(F)(F)F)c2)OC(=O)N1Cc1nc(N2CCC2)ncc1-c1cc([C@H]2CC[C@H](C(=O)O)CC2)ccc1Cl [Example 173]	21
COc1ccc(CCC(=O)O)cc1-c1cnc(N2CC(F)(F)C2)nc1CN1C(=O)O[C@H](c2cc(C(F)(F)F)cc(C(F)(F)F)c2)[C@@H]1C [Example 174]	18
COc1ccc(C(C)(C)CC(=O)O)cc1-c1cnc(N2CCC2)nc1CN1C(=O)O[C@H](c2cc(C(F)(F)F)cc(C(F)(F)F)c2)[C@@H]1C [Example 175]	72
COc1ccc(CCC(=O)O)cc1-c1cnc(N2CC(OC)C2)nc1CN1C(=O)O[C@H](c2cc(C(F)(F)F)cc(C(F)(F)F)c2)[C@@H]1C [Example 176]	415
C[C@H]1[C@@H](c2cc(C(F)(F)F)cc(C(F)(F)F)c2)OC(=O)N1Cc1nc(N2CC(F)(F)C2)ncc1-c1cc([C@H]2CC[C@H](C(=O)O)CC2)ccc1Cl [Example 177]	19
Cc1cc(C(=O)O)ccc1-c1ccc(C)c(-c2cnc(N3CC(F)(F)C3)nc2CN2C(=O)O[C@H](c3cc(C(F)(F)F)cc(C(F)(F)F)c3)[C@@H]2C)c1 [Example 178]	6
COc1cc(F)c(-c2cnc(C(=O)O)cc2C)cc1-c1cnc(N2CC(F)(F)C2)nc1CN1C(=O)O[C@H](c2cc(C(F)(F)F)cc(C(F)(F)F)c2)[C@@H]1C [Example 183]	14
Cc1cc(C(=O)O)ccc1-c1cc(-c2cnc(N3CC(F)(F)C3)nc2CN2C(=O)O[C@H](c3cc(C(F)(F)F)cc(C(F)(F)F)c3)[C@@H]2C)ccc1F [Example 184, 5′-[4-({(4S,5R)-5-[3,5-bis(trifluoromethyl)phenyl]-4-methyl-2-oxo-1,3-oxazolidin-3-yl}methyl)-2-(3,3-difluoroazetidin-1-yl)pyrimidin-5-yl]-2′-fluoro-2-methylbiphenyl-4-carboxylic acid]	12
COc1ccc([C@H]2CC[C@H](C(=O)O)CC2)cc1-c1cnc(N2CC(F)C2)nc1CN1C(=O)O[C@H](c2cc(C(F)(F)F)cc(C(F)(F)F)c2)[C@@H]1C [Example 185]	12
COc1ccc([C@H]2CC[C@H](C(=O)O)CC2)cc1-c1cnc(N2CC(OC)C2)nc1CN1C(=O)O[C@H](c2cc(C(F)(F)F)cc(C(F)(F)F)c2)[C@@H]1C [Example 186]	137
COc1c(F)cc(-n2ncc(C(=O)O)c2C(F)(F)F)cc1-c1cnc(N2CC(F)(F)C2)nc1CN1C(=O)O[C@H](c2cc(C(F)(F)F)cc(C(F)(F)F)c2)[C@@H]1C [Example 187]	4
COc1c(F)cc(-c2ncc(C(=O)O)cc2Cl)cc1-c1cnc(N2CC(F)(F)C2)nc1CN1C(=O)O[C@H](c2cc(C(F)(F)F)cc(C(F)(F)F)c2)[C@@H]1C [Example 188]	18

Structure (SMILES)	IC50 [nM]
COc1cc(F)c(-c2ncc(C(=O)O)cc2Cl)cc1-c1cnc(N2CC(F)(F)C2)nc1CN1C(=O)O[C@H](c2cc(C(F)(F)F)cc(C(F)(F)F)c2)[C@@H]1C [Example 189]	5
COc1cc(F)c(-c2cc(C(F)(F)F)c(C(=O)O)cn2)cc1-c1cnc(N2CC(F)(F)C2)nc1CN1C(=O)O[C@H](c2cc(C(F)(F)F)cc(C(F)(F)F)c2)[C@@H]1C [Example 190]	146
COc1ccc(-n2ncc(C(=O)O)c2C(F)(F)F)cc1-c1cnc(N2CC(F)(F)C2)nc1CN1C(=O)O[C@H](c2cc(C(F)(F)F)cc(C(F)(F)F)c2)[C@@H]1C [Example 191]	9
COc1ccc(CCC(=O)N2CCC2)cc1-c1cnc(N2CCC2)nc1CN1C(=O)O[C@H](c2cc(C(F)(F)F)cc(C(F)(F)F)c2)[C@@H]1C [Example 193]	105
COc1ccc([C@H]2CC[C@H](C(=O)OC)CC2)cc1-c1ccc(N2CCC2)nc1CN1C(=O)O[C@H](c2cccc(C(F)(F)F)c2)[C@@H]1C [Example 194]	145
COC(=O)CC(C)(C)c1ccc(OC)c(-c2ccc(N3CCC3)nc2CN2C(=O)O[C@H](c3cccc(C(F)(F)F)c3)[C@@H]2C)c1 [Example 195]	44
COc1ccc(CC(C)(C)C(=O)OC(C)(C)C)cc1-c1ccc(N2CCC2)nc1CN1C(=O)O[C@H](c2cccc(C(F)(F)F)c2)[C@@H]1C [Example 196]	381
CCOC(=O)CCc1ccc(OC)c(-c2ccc(N3CCC3)nc2CN2C(=O)O[C@H](c3cccc(C(F)(F)F)c3)[C@@H]2C)c1 [Example 197]	59
CCOC(=O)CCc1ccc(OC)c(-c2ccc(N3CCC3)nc2CN2C(=O)O[C@H](c3cc(C)cc(C)c3)[C@@H]2C)c1 [Example 198]	50
CCOC(=O)CCc1ccc(OC)c(-c2ccc(N3CCC3)nc2CN2C(=O)O[C@H](c3cccc(C)c3)[C@@H]2C)c1 [Example 199]	237
COc1ccc([C@H]2CC[C@H](C(=O)OC)CC2)cc1-c1ccc(N2CCC2)nc1CN1C(=O)O[C@H](c2cc(C)cc(C)c2)[C@@H]1C [Example 200]	55
COc1ccc([C@H]2CC[C@H](C(=O)OC)CC2)cc1-c1ccc(N2CCC2)nc1CN1C(=O)O[C@H](c2cccc(C)c2)[C@@H]1C [Example 201]	166
COC(=O)CC(C)(C)c1ccc(OC)c(-c2ccc(N3CCC3)nc2CN2C(=O)O[C@H](c3cc(C)cc(C)c3)[C@@H]2C)c1 [Example 202]	16
COC(=O)CC(C)(C)c1ccc(OC)c(-c2ccc(N3CCC3)nc2CN2C(=O)O[C@H](c3cccc(C)c3)[C@@H]2C)c1 [Example 203]	106
CCOC(=O)C[C@@H]1CCc2cc(OC)c(-c3ccc(N4CCC4)nc3CN3C(=O)O[C@H](c4cccc(C(F)(F)F)c4)[C@@H]3C)cc21 [Example 204]	114
CCOC(=O)C[C@@H]1CCc2cc(OC)c(-c3ccc(N4CCC4)nc3CN3C(=O)O[C@H](c4cc(C)cc(C)c4)[C@@H]3C)cc21 [Example 205]	54
CCOC(=O)C[C@@H]1CCc2cc(OC)c(-c3ccc(N4CCC4)nc3CN3C(=O)O[C@H](c4cccc(C)c4)[C@@H]3C)cc21 [Example 206]	203
CCOC(=O)[C@@H]1C[C@H]1c1ccc(OC)c(-c2ccc(N3CCC3)nc2CN2C(=O)O[C@H](c3cccc(C(F)(F)F)c3)[C@@H]2C)c1 [Example 207]	44
CCOC(=O)[C@@H]1C[C@H]1c1ccc(OC)c(-c2ccc(N3CCC3)nc2CN2C(=O)O[C@H](c3cc(C)cc(C)c3)[C@@H]2C)c1 [Example 208]	25
CCOC(=O)[C@@H]1C[C@H]1c1ccc(OC)c(-c2ccc(N3CCC3)nc2CN2C(=O)O[C@H](c3cccc(C)c3)[C@@H]2C)c1 [Example 209]	99
COC(=O)c1ccc(-c2ccc(OC)c(-c3ccc(N4CCC4)nc3CN3C(=O)O[C@H](c4cccc(C(F)(F)F)c4)[C@@H]3C)c2)c(C)c1 [Example 210]	22
COC(=O)c1ccc(-c2ccc(OC)c(-c3ccc(N4CCC4)nc3CN3C(=O)O[C@H](c4cc(C)cc(C)c4)[C@@H]3C)c2)c(C)c1 [Example 211]	23
COC(=O)c1ccc(-c2ccc(OC)c(-c3ccc(N4CCC4)nc3CN3C(=O)O[C@H](c4cccc(C)c4)[C@@H]3C)c2)c(C)c1 [Example 212]	75
